Data reported in BindingDB's records for doi:10.1124/jpet.301.1.37 (National Institutes of Health, 2002).
Where “and” joins values, the source holds several entries; their conditions need not be identical. Equal entries are not always repeated.

Columns and labels:
VIP peptides [1] = target: T1, VIP peptides (Rattus norvegicus, UniProt P01283)
T1 sequence (P01283 whole entry): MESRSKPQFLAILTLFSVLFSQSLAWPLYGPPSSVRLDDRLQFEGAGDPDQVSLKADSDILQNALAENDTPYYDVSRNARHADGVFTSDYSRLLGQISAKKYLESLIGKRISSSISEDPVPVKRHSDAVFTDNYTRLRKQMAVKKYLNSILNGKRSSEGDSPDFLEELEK

VIP peptides [2] = target: T2, VIP peptides (Homo sapiens, UniProt P01282)
T2 sequence (P01282 whole entry): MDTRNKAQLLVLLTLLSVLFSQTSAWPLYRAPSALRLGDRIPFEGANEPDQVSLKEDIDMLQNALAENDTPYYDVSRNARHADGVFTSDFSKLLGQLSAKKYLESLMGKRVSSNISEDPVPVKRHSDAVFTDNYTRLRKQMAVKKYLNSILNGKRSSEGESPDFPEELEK

VIP peptides [3] = target: T3, VIP peptides (Cavia porcellus, UniProt P04566)
T3 sequence (P04566 whole entry): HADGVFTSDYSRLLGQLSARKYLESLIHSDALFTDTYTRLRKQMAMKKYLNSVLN

Compound | Ki (VIP peptides [1]) | Ki (VIP peptides [2]) | Ki (VIP peptides [3])
CC[C@H](C)[C@H](NC(=O)[C@H](CO)NC(=O)[C@H](CC(N)=O)NC(=O)[C@H](CC(C)C)NC(=O)[C@H](Cc1ccc(O)cc1)NC(=O)[C@H](CCCCN)NC(=O)[C@H](CCCCN)NC(=O)[C@@H](NC(=O)[C@H](C)NC(=O)[C@H](CCSC)NC(=O)[C@H](CCC(N)=O)NC(=O)[C@H](CCCCN)NC(=O)[C@H](CCCN=C(N)N)NC(=O)[C@H](CC(C)C)NC(=O)[C@H](CCCN=C(N)N)NC(=O)[C@@H](NC(=O)[C@H](Cc1ccc(O)cc1)NC(=O)[C@H](CC(N)=O)NC(=O)[C@H](CC(=O)O)NC(=O)[C@@H](NC(=O)[C@H](Cc1ccccc1)NC(=O)[C@@H](NC(=O)[C@H](C)NC(=O)[C@H](CC(=O)O)NC(=O)[C@@H](CO)NC(=O)[C@@H](N)Cc1cnc[nH]1)C(C)C)[C@@H](C)O)[C@@H](C)O)C(C)C)C(=O)N[C@@H](CC(C)C)C(=O)N[C@@H](CC(N)=O)C(N)=O [VIP [D-Ser2]] | 4.2 nM and 15.1 nM and 38.9 nM | 1.9 nM and 18.2 nM and 15.9 nM | 8.1 nM
H-HSDAVATDNYTRLRKQMAVKKYLNSILN-NH2 [VIP Ala16] | 661 nM and 1860 nM and 2340 nM | 724 nM and 1150 nM and 794 nM | 2750 nM
CC[C@H](C)[C@H](NC(=O)[C@H](CO)NC(=O)[C@H](CC(N)=O)NC(=O)[C@H](CC(C)C)NC(=O)[C@H](Cc1ccc(O)cc1)NC(=O)[C@H](CCCCN)NC(=O)[C@H](CCCCN)NC(=O)[C@@H](NC(=O)[C@H](C)NC(=O)[C@H](CCSC)NC(=O)[C@H](CCC(N)=O)NC(=O)[C@H](CCCCN)NC(=O)[C@H](CCCN=C(N)N)NC(=O)[C@H](CC(C)C)NC(=O)[C@H](CCCN=C(N)N)NC(=O)[C@@H](NC(=O)[C@H](Cc1ccc(O)cc1)NC(=O)[C@H](CC(N)=O)NC(=O)[C@H](CC(=O)O)NC(=O)[C@@H](NC(=O)[C@@H](Cc1ccccc1)NC(=O)[C@@H](NC(=O)[C@H](C)NC(=O)[C@H](CC(=O)O)NC(=O)[C@H](CO)NC(=O)[C@@H](N)Cc1cnc[nH]1)C(C)C)[C@@H](C)O)[C@@H](C)O)C(C)C)C(=O)N[C@@H](CC(C)C)C(=O)N[C@@H](CC(N)=O)C(N)=O [VIP [D-Phe6]] | 269 nM and 692 nM and 912 nM | 288 nM and 198 nM and 115 nM | 400 nM
CC[C@H](C)[C@H](NC(=O)[C@H](CO)NC(=O)[C@H](CC(N)=O)NC(=O)[C@H](CC(C)C)NC(=O)[C@H](Cc1ccc(O)cc1)NC(=O)[C@H](CCCCN)NC(=O)[C@H](CCCCN)NC(=O)[C@@H](NC(=O)[C@H](C)NC(=O)[C@H](CCSC)NC(=O)[C@H](CCC(N)=O)NC(=O)[C@H](CCCCN)NC(=O)[C@H](CCCN=C(N)N)NC(=O)[C@H](CC(C)C)NC(=O)[C@H](CCCN=C(N)N)NC(=O)[C@@H](NC(=O)[C@H](Cc1ccc(O)cc1)NC(=O)[C@H](CC(N)=O)NC(=O)[C@H](CC(=O)O)NC(=O)[C@@H](NC(=O)[C@H](Cc1ccccc1)NC(=O)[C@@H](NC(=O)[C@H](C)NC(=O)[C@H](CC(=O)O)NC(=O)[C@H](CO)NC(=O)[C@@H](N)Cc1cnc[nH]1)C(C)C)[C@@H](C)O)[C@@H](C)O)C(C)C)C(=O)N[C@@H](CC(C)C)C(=O)N[C@H](CC(N)=O)C(N)=O [VIP [D-Asn28]] | 1.5 nM and 6.3 nM and 11.8 nM |  | 14.8 nM
H-HSDAVFTDNYARLRKQMAVKKYLNSILN-NH2 [VIP Ala11] | 0.34 nM and 1.9 nM and 0.42 nM |  | 2.4 nM
CC[C@H](C)[C@H](NC(=O)[C@H](CO)NC(=O)[C@H](CC(N)=O)NC(=O)[C@H](CC(C)C)NC(=O)[C@H](Cc1ccc(O)cc1)NC(=O)[C@H](CCCCN)NC(=O)[C@H](CCCCN)NC(=O)[C@@H](NC(=O)[C@H](C)NC(=O)[C@H](CCSC)NC(=O)[C@H](CCC(N)=O)NC(=O)[C@H](CCCCN)NC(=O)[C@H](CCCN=C(N)N)NC(=O)[C@H](CC(C)C)NC(=O)[C@H](CCCN=C(N)N)NC(=O)[C@@H](NC(=O)[C@H](Cc1ccc(O)cc1)NC(=O)[C@H](CC(N)=O)NC(=O)[C@H](CC(=O)O)NC(=O)[C@@H](NC(=O)[C@H](Cc1ccccc1)NC(=O)[C@@H](NC(=O)[C@H](C)NC(=O)[C@@H](CC(=O)O)NC(=O)[C@H](CO)NC(=O)[C@@H](N)Cc1cnc[nH]1)C(C)C)[C@@H](C)O)[C@@H](C)O)C(C)C)C(=O)N[C@@H](CC(C)C)C(=O)N[C@@H](CC(N)=O)C(N)=O [VIP [D-Asp3]] | 0.93 nM and 5.4 nM and 6.5 nM |  | 9.1 nM
CC[C@H](C)[C@H](NC(=O)[C@H](CO)NC(=O)[C@H](CC(N)=O)NC(=O)[C@H](CC(C)C)NC(=O)[C@H](Cc1ccc(O)cc1)NC(=O)[C@H](CCCCN)NC(=O)[C@H](CCCCN)NC(=O)[C@@H](NC(=O)[C@H](C)NC(=O)[C@H](CCSC)NC(=O)[C@H](CCC(N)=O)NC(=O)[C@H](CCCCN)NC(=O)[C@H](CCCN=C(N)N)NC(=O)[C@H](CC(C)C)NC(=O)[C@H](CCCN=C(N)N)NC(=O)[C@@H](NC(=O)[C@H](Cc1ccc(O)cc1)NC(=O)[C@H](CC(N)=O)NC(=O)[C@H](CC(=O)O)NC(=O)[C@@H](NC(=O)[C@H](Cc1ccccc1)NC(=O)[C@@H](NC(=O)[C@@H](C)NC(=O)[C@H](CC(=O)O)NC(=O)[C@H](CO)NC(=O)[C@@H](N)Cc1cnc[nH]1)C(C)C)[C@@H](C)O)[C@@H](C)O)C(C)C)C(=O)N[C@@H](CC(C)C)C(=O)N[C@@H](CC(N)=O)C(N)=O [VIP [D-Ala4]] | 1.1 nM and 7.2 nM and 10.5 nM |  | 16.2 nM
CC[C@H](C)[C@H](NC(=O)[C@H](CO)NC(=O)[C@H](CC(N)=O)NC(=O)[C@H](CC(C)C)NC(=O)[C@H](Cc1ccc(O)cc1)NC(=O)[C@H](CCCCN)NC(=O)[C@H](CCCCN)NC(=O)[C@@H](NC(=O)[C@H](C)NC(=O)[C@H](CCSC)NC(=O)[C@H](CCC(N)=O)NC(=O)[C@H](CCCCN)NC(=O)[C@H](CCCN=C(N)N)NC(=O)[C@H](CC(C)C)NC(=O)[C@H](CCCN=C(N)N)NC(=O)[C@@H](NC(=O)[C@H](Cc1ccc(O)cc1)NC(=O)[C@H](CC(N)=O)NC(=O)[C@@H](CC(=O)O)NC(=O)[C@@H](NC(=O)[C@H](Cc1ccccc1)NC(=O)[C@@H](NC(=O)[C@H](C)NC(=O)[C@H](CC(=O)O)NC(=O)[C@H](CO)NC(=O)[C@@H](N)Cc1cnc[nH]1)C(C)C)[C@@H](C)O)[C@@H](C)O)C(C)C)C(=O)N[C@@H](CC(C)C)C(=O)N[C@@H](CC(N)=O)C(N)=O [VIP [D-Asp8]] |  | 110 nM and 138 nM and 178 nM | 275 nM
CC[C@H](C)[C@H](NC(=O)[C@H](CO)NC(=O)[C@H](CC(N)=O)NC(=O)[C@H](CC(C)C)NC(=O)[C@H](Cc1ccc(O)cc1)NC(=O)[C@H](CCCCN)NC(=O)[C@H](CCCCN)NC(=O)[C@@H](NC(=O)[C@H](C)NC(=O)[C@H](CCSC)NC(=O)[C@H](CCC(N)=O)NC(=O)[C@H](CCCCN)NC(=O)[C@H](CCCN=C(N)N)NC(=O)[C@H](CC(C)C)NC(=O)[C@H](CCCN=C(N)N)NC(=O)[C@@H](NC(=O)[C@H](Cc1ccc(O)cc1)NC(=O)[C@H](CC(N)=O)NC(=O)[C@H](CC(=O)O)NC(=O)[C@@H](NC(=O)[C@H](Cc1ccccc1)NC(=O)[C@@H](NC(=O)[C@H](C)NC(=O)[C@H](CC(=O)O)NC(=O)[C@H](CO)NC(=O)[C@H](N)Cc1cnc[nH]1)C(C)C)[C@@H](C)O)[C@@H](C)O)C(C)C)C(=O)N[C@@H](CC(C)C)C(=O)N[C@@H](CC(N)=O)C(N)=O [VIP [D-His1]] |  | 0.74 nM and 4.1 nM and 3.7 nM | 22.4 nM

Second part, led by results:

Ki (VIP peptides [1]) | Compound | Ki (VIP peptides [2]) | Ki (VIP peptides [3])
1.7 nM and 3.5 nM and 3.3 nM | H-HSDAVFTDNYTRLRKQMAVAKYLNSILN-NH2 [VIP Ala20] |  | 5.5 nM
33.9 nM and 213 nM and 204 nM | H-HSDAVFTDNYTRLRKQMAVKKYANSILN-NH2 [VIP Ala23] | 26.9 nM and 170 nM and 155 nM | 182 nM
1.9 nM and 9.3 nM and 10 nM | H-HSDAVFTDNYTRARKQMAVKKYLNSILN-NH2 [VIP Ala13] | 6.6 nM and 7.2 nM and 3.4 nM | 9.5 nM
0.38 nM and 2.1 nM and 0.51 nM | H-HSDAVFTDNYTRLRKQMAVKAYLNSILN-NH2 [VIP Ala21] | 0.87 nM and 5 nM and 5.1 nM | 3.2 nM
0.93 nM and 2.1 nM and 1.1 nM | H-HSDAVFTDNYTRLRKAMAVKKYLNSILN-NH2 [VIP Ala16] |  | 5.1 nM
